Test system: vasopressor response of angiotensin II
Assay: AII Challenge: antagonism of angiotensin II vasopressor response
Assay type: in vivo
Conditions: for inhibition in vivo at 1 mg/kg: Rattus norvegicus
Summary of the method: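 Percent antagonism is based on the systolic blood pressure rise (mmHg) to i.v. angiotensin II at 0.05 and 0.1 ug/kg. Each rat's own predose response was taken as 100%. Challenges were repeated from 30 to 300 min after i.v., i.p. or oral compound in cannulated conscious male SHR, 16-20 weeks old.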

## CCCCc1nc2ccc(C3(CO)CC4CCCN4O3)cc2c(=O)n1Cc1ccc(-c2ccccc2-c2nnn[nH]2)cc1 (stereo not drawn) [Example 80, (Trans)-2-butyl-6-[hexahydro-2-(hydroxymethyl)-Pyrrolo[1,2-b]isoxazol-2-yl]-3-[[2'-[1H-tetrazol-5-yl)[1,1'-biphenyl]-4-yl]methyl-4(3H)quinazolinone]
1 mg/kg P.O., AII 0.05 mcg/kg IV, 30 min post dose
  Response Average Change: 30 mmHg
1 mg/kg P.O., AII 0.05 mcg/kg IV, 60 min post dose
  Response Average Change: 15 mmHg
1 mg/kg P.O., AII 0.05 mcg/kg IV, 90 min post dose
  Response Average Change: 22.5 mmHg
1 mg/kg P.O., AII 0.05 mcg/kg IV, 120 min post dose
  Response Average Change: 10 mmHg
1 mg/kg P.O., AII 0.05 mcg/kg IV, 180 min post dose
  Response Average Change: 19 mmHg
1 mg/kg P.O., AII 0.05 mcg/kg IV, 240 min post dose
  Response Average Change: 17.5 mmHg
1 mg/kg P.O., AII 0.05 mcg/kg IV, 300 min post dose
  Response Average Change: 30 mmHg
1 mg/kg P.O., AII 0.1 mcg/kg IV, 30 min post dose
  Response Average Change: 37.5 mmHg
1 mg/kg P.O., AII 0.1 mcg/kg IV, 60 min post dose
  Response Average Change: 32.5 mmHg
1 mg/kg P.O., AII 0.1 mcg/kg IV, 90 min post dose
  Response Average Change: 27.5 mmHg
1 mg/kg P.O., AII 0.1 mcg/kg IV, 120 min post dose
  Response Average Change: 22.5 mmHg
1 mg/kg P.O., AII 0.1 mcg/kg IV, 180 min post dose
  Response Average Change: 25 mmHg
1 mg/kg P.O., AII 0.1 mcg/kg IV, 240 min post dose
  Response Average Change: 25 mmHg
1 mg/kg P.O., AII 0.1 mcg/kg IV, 300 min post dose
  Response Average Change: 27.5 mmHg
1 mg/kg i.v., AII 0.05 mcg/kg IV, 30 min post dose
  Response Average Change: 5 mmHg
1 mg/kg i.v., AII 0.05 mcg/kg IV, 60 min post dose
  Response Average Change: 5 mmHg
1 mg/kg i.v., AII 0.05 mcg/kg IV, 90 min post dose
  Response Average Change: 9 mmHg
1 mg/kg i.v., AII 0.05 mcg/kg IV, 120 min post dose
  Response Average Change: 12.5 mmHg
1 mg/kg i.v., AII 0.05 mcg/kg IV, 180 min post dose
  Response Average Change: 12.5 mmHg
1 mg/kg i.v., AII 0.05 mcg/kg IV, 240 min post dose
  Response Average Change: 20 mmHg
1 mg/kg i.v., AII 0.05 mcg/kg IV, 300 min post dose
  Response Average Change: 16.5 mmHg
1 mg/kg i.v., AII 0.1 mcg/kg IV, 30 min post dose
  Response Average Change: 8.5 mmHg
1 mg/kg i.v., AII 0.1 mcg/kg IV, 60 min post dose
  Response Average Change: 10 mmHg
1 mg/kg i.v., AII 0.1 mcg/kg IV, 90 min post dose
  Response Average Change: 22.5 mmHg
1 mg/kg i.v., AII 0.1 mcg/kg IV, 120 min post dose
  Response Average Change: 17.5 mmHg
1 mg/kg i.v., AII 0.1 mcg/kg IV, 180 min post dose
  Response Average Change: 17.5 mmHg
1 mg/kg i.v., AII 0.1 mcg/kg IV, 240 min post dose
  Response Average Change: 22.5 mmHg
1 mg/kg i.v., AII 0.1 mcg/kg IV, 300 min post dose
  Response Average Change: 30 mmHg
iv, 0.5 h, 1 mg/kg i.v., AII 0.05 mcg/kg IV, 30 min post dose
  inhibition in vivo at 1 mg/kg: 90%
iv, 0.5 h, 1 mg/kg i.v., AII 0.1 mcg/kg IV, 30 min post dose
  inhibition in vivo at 1 mg/kg: 83%
iv, 1 h, 1 mg/kg i.v., AII 0.05 mcg/kg IV, 60 min post dose
  inhibition in vivo at 1 mg/kg: 90%
iv, 1 h, 1 mg/kg i.v., AII 0.1 mcg/kg IV, 60 min post dose
  inhibition in vivo at 1 mg/kg: 80%
iv, 2 h, 1 mg/kg i.v., AII 0.05 mcg/kg IV, 120 min post dose
  inhibition in vivo at 1 mg/kg: 76%
iv, 2 h, 1 mg/kg i.v., AII 0.1 mcg/kg IV, 120 min post dose
  inhibition in vivo at 1 mg/kg: 65%
iv, 3 h, 1 mg/kg i.v., AII 0.05 mcg/kg IV, 180 min post dose
  inhibition in vivo at 1 mg/kg: 76%
iv, 3 h, 1 mg/kg i.v., AII 0.1 mcg/kg IV, 180 min post dose
  inhibition in vivo at 1 mg/kg: 65%
iv, 4 h, 1 mg/kg i.v., AII 0.05 mcg/kg IV, 240 min post dose
  inhibition in vivo at 1 mg/kg: 62%
iv, 4 h, 1 mg/kg i.v., AII 0.1 mcg/kg IV, 240 min post dose
  inhibition in vivo at 1 mg/kg: 55%
iv, 5 h, 1 mg/kg i.v., AII 0.05 mcg/kg IV, 300 min post dose
  inhibition in vivo at 1 mg/kg: 69%
iv, 5 h, 1 mg/kg i.v., AII 0.1 mcg/kg IV, 300 min post dose
  inhibition in vivo at 1 mg/kg: 40%
iv, […], 1 mg/kg i.v., AII 0.05 mcg/kg IV, 90 min post dose
  inhibition in vivo at 1 mg/kg: 83%
iv, […], 1 mg/kg i.v., AII 0.1 mcg/kg IV, 90 min post dose
  inhibition in vivo at 1 mg/kg: 55%
po, 0.5 h, 1 mg/kg P.O., AII 0.05 mcg/kg IV, 30 min post dose
  inhibition in vivo at 1 mg/kg: 25%
po, 0.5 h, 1 mg/kg P.O., AII 0.1 mcg/kg IV, 30 min post dose
  inhibition in vivo at 1 mg/kg: 6%
po, 1 h, 1 mg/kg P.O., AII 0.05 mcg/kg IV, 60 min post dose
  inhibition in vivo at 1 mg/kg: 63%
po, 1 h, 1 mg/kg P.O., AII 0.1 mcg/kg IV, 60 min post dose
  inhibition in vivo at 1 mg/kg: 19%
po, 2 h, 1 mg/kg P.O., AII 0.05 mcg/kg IV, 120 min post dose
  inhibition in vivo at 1 mg/kg: 75%
po, 2 h, 1 mg/kg P.O., AII 0.1 mcg/kg IV, 120 min post dose
  inhibition in vivo at 1 mg/kg: 44%
po, 3 h, 1 mg/kg P.O., AII 0.05 mcg/kg IV, 180 min post dose
  inhibition in vivo at 1 mg/kg: 53%
po, 3 h, 1 mg/kg P.O., AII 0.1 mcg/kg IV, 180 min post dose
  inhibition in vivo at 1 mg/kg: 38%
po, 4 h, 1 mg/kg P.O., AII 0.05 mcg/kg IV, 240 min post dose
  inhibition in vivo at 1 mg/kg: 56%
po, 4 h, 1 mg/kg P.O., AII 0.1 mcg/kg IV, 240 min post dose
  inhibition in vivo at 1 mg/kg: 38%
po, 5 h, 1 mg/kg P.O., AII 0.05 mcg/kg IV, 300 min post dose
  inhibition in vivo at 1 mg/kg: 25%
po, 5 h, 1 mg/kg P.O., AII 0.1 mcg/kg IV, 300 min post dose
  inhibition in vivo at 1 mg/kg: 31%
po, […], 1 mg/kg P.O., AII 0.05 mcg/kg IV, 90 min post dose
  inhibition in vivo at 1 mg/kg: 44%
po, […], 1 mg/kg P.O., AII 0.1 mcg/kg IV, 90 min post dose
  inhibition in vivo at 1 mg/kg: 31%

— patent US5358951A, “Angiotensin II receptor blocking 2, 3, 6 substituted quinazolinones” (American Cyanamid Company, priority 1993, dated 1994)
